# Experimental data published in patent US8969325B2, “TRPV1 antagonists” (AbbVie Inc., priority 2011, dated 2015).
# What was measured:
# human TRPV1 [1] = target: T1, human TRPV1 (Homo sapiens (Human), UniProt Q8NER1); test: Acid Activation Assay (pH 5.0, intracellular Ca2+, FLIPR); format: cell-based; conditions: percentage of the maximal pH 5.0-induced response remaining; recombinant HEK293 hTRPV1 cells; maximum concentration tested 37.5 μM
# Procedure, shortened: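 HEK293 cells stably expressing recombinant hTRPV1, loaded with Calcium-4 dye 90-120 min at 25° C. Compounds added over a 12-point half-log range (top 37.5 μM), then pH 5.0 DPBS/MES challenge after 3 min; FLIPR peak fluorescence over baseline given as % of maximal pH 5.0 response.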
# human TRPV1 [2] = target: T1, human TRPV1; test: Capsaicin Activation Assay (intracellular Ca2+, FLIPR); format: cell-based; conditions: recombinant HEK293 cells expressing hTRPV1, 50 nM capsaicin
# Procedure, shortened: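 Stably transfected HEK293 cells expressing human TRPV1 cDNA, plated the day before in poly-D-lysine plates. Compounds serially diluted from 10 mM DMSO stocks; intracellular Ca2+ fluorescence read on FLIPR at 1 to 5 second intervals.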
# T1 sequence (Q8NER1 whole entry): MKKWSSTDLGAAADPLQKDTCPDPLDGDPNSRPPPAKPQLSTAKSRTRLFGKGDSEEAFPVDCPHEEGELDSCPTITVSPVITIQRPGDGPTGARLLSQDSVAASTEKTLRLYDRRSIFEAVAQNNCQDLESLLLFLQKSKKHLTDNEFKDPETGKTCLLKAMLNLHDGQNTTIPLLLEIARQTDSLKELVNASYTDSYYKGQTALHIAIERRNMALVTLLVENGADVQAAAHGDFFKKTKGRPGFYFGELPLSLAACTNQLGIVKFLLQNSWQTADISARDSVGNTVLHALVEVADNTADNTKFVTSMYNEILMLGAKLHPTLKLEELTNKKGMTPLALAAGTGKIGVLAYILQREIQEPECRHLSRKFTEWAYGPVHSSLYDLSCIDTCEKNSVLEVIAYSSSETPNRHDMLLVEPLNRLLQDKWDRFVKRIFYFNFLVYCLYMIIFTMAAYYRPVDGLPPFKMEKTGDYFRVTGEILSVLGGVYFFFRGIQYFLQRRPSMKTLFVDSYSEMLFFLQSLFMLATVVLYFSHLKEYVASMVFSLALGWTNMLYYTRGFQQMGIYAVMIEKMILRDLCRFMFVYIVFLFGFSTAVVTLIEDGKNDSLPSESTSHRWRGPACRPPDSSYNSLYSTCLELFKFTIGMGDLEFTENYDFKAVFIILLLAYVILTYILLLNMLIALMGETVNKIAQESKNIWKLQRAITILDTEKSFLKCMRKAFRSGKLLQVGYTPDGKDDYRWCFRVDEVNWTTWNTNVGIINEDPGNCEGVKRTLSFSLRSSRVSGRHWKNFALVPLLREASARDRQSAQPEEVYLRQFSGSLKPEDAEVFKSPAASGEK
human TRPV1 H^+ (max % remain) (human TRPV1 [1]) [%],IC50 (human TRPV1 [2]) [µM],SMILES
98,31,"O=C1COc2ccc(NC(=O)NCC3CCc4ccc(C(F)(F)F)cc4O3)cc2N1 (stereo not drawn) [Example 132, 1-(3-oxo-3,4-dihydro-2H-1,4-benzoxazin-6-yl)-3-{[7-(trifluoromethyl)-3,4-dihydro-2H-chromen-2-yl]methyl}urea]"
99,0.056,"CC1(C)C[C@@H](NC(=O)Nc2ccc3c(c2)NC(=O)CO3)c2ccc(Cl)cc2O1 [Example 114, 1-[(4R)-7-chloro-2,2-dimethyl-3,4-dihydro-2H-chromen-4-yl]-3-(3-oxo-3,4-dihydro-2H-1,4-benzoxazin-6-yl)urea]"
4,0.043,"CCC1(CC)C[C@@H](NC(=O)Nc2ccc3c(c2)NC(=O)N(CCO)C3)c2ccccc2O1 [Example 45, 1-[(4R)-2,2-diethyl-3,4-dihydro-2H-chromen-4-yl]-3-[3-(2-hydroxyethyl)-2-oxo-1,2,3,4-tetrahydroquinazolin-7-yl]urea]"
28,0.21,"CCC1(CC)C[C@@H](NC(=O)Nc2ccc3c(c2)NC(=O)N(C)C3)c2ccc(Cl)cc2O1 [Example 181, 1-[(4R)-7-chloro-2,2-diethyl-3,4-dihydro-2H-chromen-4-yl]-3-(3-methyl-2-oxo-1,2,3,4-tetrahydroquinazolin-7-yl)urea]"
79,0.45,"CCCC1(CCC)C[C@@H](NC(=O)Nc2ccc3c(c2)NC(=O)N(C)C3)c2cccc(F)c2O1 [Example 190, 1-[(4R)-8-fluoro-2,2-dipropyl-3,4-dihydro-2H-chromen-4-yl]-3-(3-methyl-2-oxo-1,2,3,4-tetrahydroquinazolin-7-yl)urea]"
72,0.17,"CN1C(=O)CCc2ccc(NC(=O)N[C@@H]3CCOc4ccccc43)cc21 [Example 258, 1-[(4R)-3,4-dihydro-2H-chromen-4-yl]-3-(1-methyl-2-oxo-1,2,3,4-tetrahydroquinolin-7-yl)urea]"
46,0.29,"CN1Cc2ccc(NC(=O)N[C@@H]3CC4(CCC4)Oc4ccc(F)cc43)cc2NC1=O [Example 188, 1-[(4R)-6-fluoro-3,4-dihydrospiro[chromene-2,1′-cyclobutan]-4-yl]-3-(3-methyl-2-oxo-1,2,3,4-tetrahydroquinazolin-7-yl)urea]"
67,0.19,"CCCC1(CCC)C[C@@H](NC(=O)Nc2cccc3c2CNC(=O)N3C)c2cccc(F)c2O1 [Example 156, 1-[(4R)-8-fluoro-2,2-dipropyl-3,4-dihydro-2H-chromen-4-yl]-3-(1-methyl-2-oxo-1,2,3,4-tetrahydroquinazolin-5-yl)urea]"
70,0.54,"CN1C(=O)CCc2ccc(NC(=O)N[C@@H]3CC4(CCC4)Oc4ccc(F)cc43)cc21 [Example 269, 1-[(4R)-6-fluoro-3,4-dihydrospiro[chromene-2,1′-cyclobutan]-4-yl]-3-(1-methyl-2-oxo-1,2,3,4-tetrahydroquinolin-7-yl)urea]"
47,0.015,"Cn1c(=O)ccc2c(NC(=O)N[C@@H]3CC(C)(C)Oc4c3ccc(F)c4Cl)cccc21 [Example 22, 1-[(4R)-8-chloro-7-fluoro-2,2-dimethyl-3,4-dihydro-2H-chromen-4-yl]-3-(1-methyl-2-oxo-1,2-dihydroquinolin-5-yl)urea]"
63,1.3,"CN1Cc2ccc(NC(=O)N[C@@H]3C[C@@](C)(C(F)F)Oc4ccccc43)cc2NC1=O [Example 171, 1-[(2S,4R)-2-(difluoromethyl)-2-methyl-3,4-dihydro-2H-chromen-4-yl]-3-(3-methyl-2-oxo-1,2,3,4-tetrahydroquinazolin-7-yl)urea]"
101,0.44,"CC1(C)C[C@@H](NC(=O)Nc2ccc3c(c2)NC(=O)CO3)c2ccccc2O1 [Example 112, 1-[(4R)-2,2-dimethyl-3,4-dihydro-2H-chromen-4-yl]-3-(3-oxo-3,4-dihydro-2H-1,4-benzoxazin-6-yl)urea]"
99,0.034,"C[C@]1(CF)C[C@@H](NC(=O)Nc2ccc3c(c2)NC(=O)CO3)c2ccc(C(F)(F)F)cc2O1 [Example 128, 1-[(2R,4R)-2-(fluoromethyl)-2-methyl-7-(trifluoromethyl)-3,4-dihydro-2H-chromen-4-yl]-3-(3-oxo-3,4-dihydro-2H-1,4-benzoxazin-6-yl)urea]"
46,0.029,"Cn1c(=O)ccc2c(NC(=O)N[C@@H]3CC(CF)(CF)Oc4ccc(F)cc43)cccc21 [Example 71, 1-[(4R)-6-fluoro-2,2-bis(fluoromethyl)-3,4-dihydro-2H-chromen-4-yl]-3-(1-methyl-2-oxo-1,2-dihydroquinolin-5-yl)urea]"
32,0.14,"CC1(C)C[C@@H](NC(=O)Nc2ccc3c(c2)NC(=O)CC3)c2cc(F)ccc2O1 [Example 232, 1-[(4R)-6-fluoro-2,2-dimethyl-3,4-dihydro-2H-chromen-4-yl]-3-(2-oxo-1,2,3,4-tetrahydroquinolin-7-yl)urea]"
24,0.16,"C[C@@]1(C(F)F)C[C@@H](NC(=O)Nc2ccc3c(c2)NC(=O)CC3)c2ccccc2O1 [Example 248, 1-[(2S,4R)-2-(difluoromethyl)-2-methyl-3,4-dihydro-2H-chromen-4-yl]-3-(2-oxo-1,2,3,4-tetrahydroquinolin-7-yl)urea]"
29,0.38,"CCC1(CC)C[C@@H](NC(=O)Nc2ccc3c(c2)NC(=O)N(C)C3)c2ccc(Cl)c(Cl)c2O1 [Example 182, 1-[(4R)-7,8-dichloro-2,2-diethyl-3,4-dihydro-2H-chromen-4-yl]-3-(3-methyl-2-oxo-1,2,3,4-tetrahydroquinazolin-7-yl)urea]"
14,0.59,"C[C@@]1(C(F)F)C[C@@H](NC(=O)Nc2ccc3c(c2)NC(=O)N(CCO)C3)c2ccccc2O1 [Example 318, 1-[(2S,4R)-2-(difluoromethyl)-2-methyl-3,4-dihydro-2H-chromen-4-yl]-3-[3-(2-hydroxyethyl)-2-oxo-1,2,3,4-tetrahydroquinazolin-7-yl]urea]"
2,0.19,"CCCC1(CCC)C[C@@H](NC(=O)Nc2ccc3c(c2)NC(=O)N(CCO)C3)c2cc(F)ccc2O1 [Example 310, 1-[(4R)-6-fluoro-2,2-dipropyl-3,4-dihydro-2H-chromen-4-yl]-3-[3-(2-hydroxyethyl)-2-oxo-1,2,3,4-tetrahydroquinazolin-7-yl]urea]"
37,0.46,"CCC1(CC)C[C@@H](NC(=O)Nc2ccc3c(c2)N(C)C(=O)CC3)c2ccc(Cl)cc2O1 [Example 262, 1-[(4R)-7-chloro-2,2-diethyl-3,4-dihydro-2H-chromen-4-yl]-3-(1-methyl-2-oxo-1,2,3,4-tetrahydroquinolin-7-yl)urea]"
50,0.43,"O=C1CCc2ccc(NC(=O)N[C@H]3CC(CF)(CF)Oc4cc(Cl)ccc43)cc2N1 [Example 217, 1-[(4S)-7-chloro-2,2-bis(fluoromethyl)-3,4-dihydro-2H-chromen-4-yl]-3-(2-oxo-1,2,3,4-tetrahydroquinolin-7-yl)urea]"
23,0.063,"CN1C(=O)NCc2c(NC(=O)N[C@@H]3C[C@@](C)(CF)Oc4cc(Cl)ccc43)cccc21 [Example 14, 1-[(2S,4R)-7-chloro-2-(fluoromethyl)-2-methyl-3,4-dihydro-2H-chromen-4-yl]-3-(1-methyl-2-oxo-1,2,3,4-tetrahydroquinazolin-5-yl)urea]"
32,0.95,"O=C(Nc1ccc2c(c1)NC(=O)N(CCO)C2)N[C@@H]1CCOc2ccc(F)cc21 [Example 52, 1-[(4R)-6-fluoro-3,4-dihydro-2H-chromen-4-yl]-3-[3-(2-hydroxyethyl)-2-oxo-1,2,3,4-tetrahydroquinazolin-7-yl]urea]"
50,0.76,"CN1Cc2ccc(NC(=O)N[C@@H]3CC(CF)(CF)Oc4c(F)cc(F)cc43)cc2NC1=O [Example 187, 1-[(4R)-6,8-difluoro-2,2-bis(fluoromethyl)-3,4-dihydro-2H-chromen-4-yl]-3-(3-methyl-2-oxo-1,2,3,4-tetrahydroquinazolin-7-yl)urea]"
24,0.038,"CCCC1(CCC)C[C@@H](NC(=O)Nc2ccc3c(c2)NC(=O)CC3)c2cccc(F)c2O1 [Example 230, 1-[(4R)-8-fluoro-2,2-dipropyl-3,4-dihydro-2H-chromen-4-yl]-3-(2-oxo-1,2,3,4-tetrahydroquinolin-7-yl)urea]"
69,0.067,"CN1C(=O)CCc2ccc(NC(=O)N[C@@H]3C[C@@](C)(C(F)(F)F)Oc4ccccc43)cc21 [Example 298, 1-(1-methyl-2-oxo-1,2,3,4-tetrahydroquinolin-7-yl)-3-[(2S,4R)-2-methyl-2-(trifluoromethyl)-3,4-dihydro-2H-chromen-4-yl]urea]"
111,0.15,"CCCC1(CCC)C[C@@H](NC(=O)Nc2ccc3c(c2)NC(=O)CO3)c2cccc(F)c2O1 [Example 110, 1-[(4R)-8-fluoro-2,2-dipropyl-3,4-dihydro-2H-chromen-4-yl]-3-(3-oxo-3,4-dihydro-2H-1,4-benzoxazin-6-yl)urea]"
